Reference: patent publication US20150087604A1, “ANTI-FATTY ACID SYNTHASE POLYPEPTIDE AND USE THEREOF” (TIANJIN TOPTECH BIO-SCIENCE & TECHNOLOGY CO., LTD., priority 2011, published 2015)
Entries after “also recorded” stand apart in the source; their conditions may differ.

Tests used:
[1] = test system: HepG2 cells; assay: Inoculation experiment in nude mice (HepG2 tumor growth); assay type: in vivo; conditions: 10 mg/kg, once in two day, total 10 times
Description: (§1) Suspended the HepG2 cells at exponential phase by treating with trypsin, and counted the number of cells to dilute to 1×10^7 cells/ml with physiological saline, and then store in the ice water. 12 Mice used were 4- to 6-week-old BALB/C females, and were randomly divided into two groups: (1) Control group, injected 0.2 ml diluted cells to the armpit of left forelimb for each mouse, and only injected 0.5 ml ddH2O (without polypeptide drugs); (2) experimental group (the treatment dose was 10 mg/kg), injected 0.2 ml diluted cells to the armpit of left forelimb for each mouse, and within 7 days after the injection, tumor volume (V=L×W^2×0.5) reached to 100 mm^3. And then, injected the above mentioned polypeptide drugs (dried polypeptide drug solved in 0.5 ml ddH2O) once in two day, total 10 times, and recorded the tumor volume before injection. Within 24 hr after the last dose, weighted the mice, and killed the mice to weight the tumor tissue, anti-tumor rate was calculated as follow: […]

[2] = test system: NF-κB promoter; assay: Dual-luciferase reporter gene analysis, NF-κB promoter; assay type: cell-based; conditions: HepG2 cells; synthesized polypeptide 0.1 μM, 1 μM, 10 μM and 100 μM; 24 hr incubation
From the text: (§2) Hepatoma cell line HepG2 was adopted in the experiment. Because SREBP-1c is upstream transcription regulatory factor of FAS, whether there is inhibition of SREBP-1c promoter activity at the molecular level can be used to reflect the transcription state of FAS gene by reporter gene assays. Meanwhile, the detection of FAS promoter activity can directly reflect whether the transcription of FAS is inhibited or not. The nuclear factor κB (nuclear factor KB, NF-κB) is an import transcription factor, and increasing of NF-κB promoter activity indicates the increase of cell proliferation. Therefore, it can test the effects of the invention polypeptides on the proliferation of HepG2 cell by detection of NF-κB promoter activity and (3-(4,5-dimethylthiazol-2-yl)-2,5-diphenyltetrazolium bromide (MTT). […]
(7) Immediately put the EP tubes into a Luminometer (manufactured by Turner Biosystems). Within 10 sec after 2 sec balance, measured the luminescence.
(8) Added 100 μl fluorescence bleacher. […]
(9) Measured the luminescence within 10 sec.
The relative activity was the ratio of the value of the first luminescence to the value of the second luminescence.
Results shown are representative of three independent experiments according to Mean±SD, and statistical significance was calculated using Student's t test.

[3] = Weight of nude mice in the inoculation experiment; assay type: in vivo
Description: as §1

[4] = test system: HepG2 cells; assay: MTT assay of cell proliferation of hepatoma cells; assay type: cell-based; conditions: synthesized polypeptide 0.1 μM, 1 μM, 10 μM and 100 μM, 48 hr
From the text: as §2, with “proliferation.” for “proliferation. Therefore, it can test the effects of the invention polypeptides on the proliferation of HepG2 cell by detection of NF-κB promoter activity and (3-(4,5-dimethylthiazol-2-yl)-2,5-diphenyltetrazolium bromide (MTT).”
(2) Culture the cells: Within 12 hr for adhesion of cultured cells, different amount of polypeptides plasmids from Step A (0.25 μg, 0.5 μg and 0.75 μg) or different concentrations of synthesized polypeptides from Example 1 (0.1 μM, 1 μM, 10 μM and 100 μM) were transfected with 8 wells for each concentration, and were incubated for 48 hr in the same condition. 0.3 μg pEGFP-C2 plasmids and 1 μg p-Anti-HBxP1# were cotransfected, and using a fluorescence microscope to check for cells containing the GFP plasmid after 24 hr to make sure the percentage of cells that contain GFP is over 70%; […]
(5) Comparison: Read in an ELISA reader at 490 nm to measure the absorbance for each well. Results were calculated by using Student's t-test.

[5] = Polypeptide drugs acute toxicity test; assay type: in vivo, Kunming white mice; conditions: 1 g/kg tail intravenous injection; observed 24 hr
Description: Control group and experimental group contained 10 Kunming white mice, with 5 females and 5 males, respectively. Experimental group injected Anti-FAS-P18 with the concentration of 1 g/kg (2.5 mg dried polypeptide drug solved in 0.125 ml ddH2O) by tail intravenous injection; control group, injected 0.25 ml ddH2O. Consecutively observed the mice for 24 hr after injection.

Q: With “Gly-Gly-Cys-Arg-His-Lys-Leu-Val-Cys-Ala-Pro-Ala-Pro-Cys-Asn-Phe-Phe-Thr [Anti-FAS-P18]” as the substance, how does the “growth and proliferation of HepG2 cells in nude mice” value [1] read?
A: inhibits the growth and proliferation in the HepG2 cells; also recorded: inhibits the growth and proliferation of the HepG2 cells

Q: What about the “Anti-tumor rate (%)” value ([1]; from tumor weight vs control) of the same substance?
A: 43.06%

Q: And the “Tumor Weight (X ± S, g)” value ([1]; within 24 hr after the last dose)?
A: 0.42 ± 0.09 g

Q: What about the “activity of NF-κB promoter” value [2] of the same substance?
A: inhibits the activity of NF-κB promoter in HepG2 cells in a dose-dependent manner

Q: And the “impact on the weight of nude mice” value ([3]; 10 mg/kg, once in two day, total 10 times)?
A: no significantly impact on the weight of nude mice

Q: What about the “Weight (X ± S, g) After dose” value ([3]; body weight of mice after dose, 10 mg/kg, once in two day, total 10 times) of the same substance?
A: 21.83 ± 0.82 g

Q: What about the “Weight (X ± S, g) Before dose” value ([3]; body weight of mice before dose, experimental group 10 mg/kg) of the same substance?
A: 15.33 ± 0.75 g

Q: And the “cell proliferation (MTT)” value [4]?
A: inhibits cell proliferation in the HepG2 cells in a dose-dependent manner

Q: What about the “abnormal behaviors after injection” value [5] of the same substance?
A: do not have abnormal behaviors

Q: And the “changes in weight compared with control group” value [5]?
A: no abnormal changes in weight compared with control group
